Here are results for two substances from PMC3741113, “De-Novo Design of Antimicrobial Peptides for Plant Protection” (PLoS ONE, 2013).

A value given as a limit tells only on which side of the number the result lay.

The test system of data set [1] is Pectobacterium carotovorum ssp. carotovorum. The following applies: LB-medium, about 10^5 CFU/ml, 27°C, 1–2d, OD590 nm; at least two independent replicates.
The test system of a further data set is Cladosporium herbarum. The following applies: 2% malt extract medium, 1.5–2×10^3 spores/ml, room temperature, 3d, visual screening; lowest concentration with no visible growth; at least two independent replicates.
In another data set the test system is Xanthomonas vesicatoria. The settings on record: LB-medium, about 10^5 CFU/ml, 27°C, 1–2d, OD590 nm; at least two independent replicates.
In data set [2] the test system is Arabidopsis mesophyll protoplasts. The data set is described as follows: Phytotoxicity on plant protoplasts. It counts as cell-based. The following applies: concentrations up to 100 µg/ml. How it is done: Phytotoxicity was measured on Arabidopsis mesophyll protoplasts prepared from leaves as described in [80]. 80 µl protoplast suspension containing about 5000 protoplasts were incubated with 20 µl peptide solution. Final peptide concentrations were 0, 10, 100 and 200 µg/ml. The phytotoxic effect of antimicrobial peptides was observed after 1 h with a light microscope. Hints to cell death are loss of spherical shape, chloroplast release and/or agglomeration of protoplasts.

For data set [3], the system named is Clavibacter michiganensis ssp. michiganensis. The settings on record: LB-medium, about 10^5 CFU/ml, 27°C, 1–2d, OD590 nm; at least two independent replicates.
Another data set relates to A. alternata. The data set is described as follows: Peptide spraying on inoculated tomato leaves, fungal growth. In kind it is in vivo, A. alternata on tomato (Microtom). The settings on record: 50 µg/ml peptide sprayed 22 h after inoculation (10^4 spores/ml); fungal DNA by RT-PCR. The method, then:
(§1) To determine antifungal activity of AMPs four week old tomato plants (Microtom) were inoculated with fungal spores using an aerosol can. Spores were harvested by washing sporulating plate-grown fungi (A. alternata and C. herbarum) with 62.5 mM KH2PO4 (pH 6.0) supplemented with 5.5 mM glucose and 0.1% Tween-20. One leaf per plant (three plants per treatment) was sprayed adaxial and abaxial with 500 µl spore suspension (10^4 spores/ml). In this way approximately 100 µl spore suspension was applied directly onto the plant surface. Plants were covered with a plastic cap to guarantee high humidity and incubated at 20°C. After two hours the T0 tissue sample was collected. AMPs were sprayed onto the leaf surface 22 h after inoculation. Leaves were harvested 24 h and 48 h after peptide treatment. Frozen material was homogenized in liquid nitrogen and fungal DNA was isolated. Quantification of fungal DNA content was done by qRT-PCR amplifying the nuclear encoded ribosomal internal transcribed spacer (ITS) regions. ITS1-forward and ITS4-reverse primers were used at an annealing temperature of 60°C: For A. alternata: ITS1-Alt-for, 5′-[…]-3′ and ITS4_Alt-rev, 5′-[…]-3′ and for C. herbarum: ITS1-Cla-for 5′-[…]-3′ and ITS4-Cla-rev, 5′-[…]-3′ (synthesized by metabion, Munich, Germany). […] Differences between the mean values were analysed using an unpaired t-test analysis of variance.

The test system of the next data set is Alternaria alternata. The following applies: 2% malt extract medium, 1.5–2×10^3 spores/ml, room temperature, 3d, OD590 nm; lowest concentration with no visible growth; at least two independent replicates.
The next data set relates to Botrytis cinerea. The following applies: 2% malt extract medium, 1.5–2×10^3 spores/ml, room temperature, 3d, visual screening; lowest concentration with no visible growth; at least two independent replicates.
A further data set relates to Pseudomonas corrugata. The settings on record: LB-medium, about 10^5 CFU/ml, 27°C, 1–2d, OD590 nm; at least two independent replicates.
Data set [4] relates to Pseudomonas syringae pv. tomato. The settings on record: LB-medium, about 10^5 CFU/ml, 27°C, 1–2d, OD590 nm; at least two independent replicates.
Another data set relates to C. herbarum. The data set is described as follows: Peptide spraying on inoculated tomato leaves, fungal growth. In kind it is in vivo, C. herbarum on tomato (Microtom). The following applies: 5 µg/ml peptide sprayed 22 h after inoculation (10^4 spores/ml); fungal DNA by RT-PCR. The method, then:
as §1

In the case of LRFLKKILKHLF-NH2 [SP10-D], the MIC in data set [1] is > 40 µg/mL; in the data set on Cladosporium herbarum, 5 µg/mL; with Xanthomonas vesicatoria it was 2 µg/mL; in data set [3], 5 µg/mL; against Alternaria alternata, 5 µg/mL; in the data set with Botrytis cinerea, 10 µg/mL. Further, the “phytotoxicity (in words)” value in data set [2] is listed as “no phytotoxicity”. Also, the “growth inhibition on tomato leaves” value in the data set with A. alternata is reported as “around 70%”.
In the case of KRRLIARILRLAARALVKKR-NH2 [SP13-D], the MIC in data set [1] is > 40 µg/mL; in the data set with Pseudomonas corrugata it was 40 µg/mL; against Cladosporium herbarum, 5 µg/mL; in the data set on Xanthomonas vesicatoria, 2 µg/mL; in data set [3] it was 10 µg/mL; in [4], 1 µg/mL. For the same substance, the values for the MIC against Alternaria alternata and in the data set on Botrytis cinerea were 20 µg/mL and > 40 µg/mL, respectively. Besides, the “phytotoxicity (in words)” value in [2] is listed as “no phytotoxicity”. Also, the “growth inhibition on tomato leaves” value with C. herbarum was “More than 80%”.
